Measurements published in ChEMBL document CHEMBL4308841, “Synthesis, in vitro antiproliferative activity, and kinase inhibitory effects of pyrazole-containing diarylureas and diarylamides” (Eur J Med Chem, 2018).

Key:
A549 = experiment: Growth inhibition of human A549/ATCC cells incubated for 48 hrs by sulforhodamine B assay; assay type: functional, cell-based; details: A549, 48 h
NCI-H23 = experiment: Growth inhibition of human NCI-H23 cells incubated for 48 hrs by sulforhodamine B assay; assay type: functional, cell-based; details: NCI-H23, 48 h
NCI/ADR-RES = experiment: Growth inhibition of human NCI/ADR-RES cells incubated for 48 hrs by sulforhodamine B assay; assay type: functional, cell-based
PC-3 = experiment: Growth inhibition of human PC3 cells incubated for 48 hrs by sulforhodamine B assay; assay type: functional, cell-based; details: PC-3, 48 h
MOLT-4 = experiment: Growth inhibition of human MOLT4 cells assessed as cell growth at 0.01 uM incubated for 48 hrs by sulforhodamine B assay relative to control; assay type: functional; details: MOLT-4, 48 h, read-out: Activity
NCI-H460 [1] = experiment: Growth inhibition of human NCI-H460 cells assessed as cell growth at 0.01 uM incubated for 48 hrs by sulforhodamine B assay relative to control; assay type: functional; details: NCI-H460, 48 h, read-out: Activity
HCT-116 [2] = experiment: Growth inhibition of human HCT116 cells assessed as cell growth at 0.01 uM incubated for 48 hrs by sulforhodamine B assay relative to control; assay type: functional; details: HCT-116, 48 h, read-out: Activity
Malme-3M = experiment: Growth inhibition of human MALME-3M cells assessed as cell growth at 0.01 uM incubated for 48 hrs by sulforhodamine B assay relative to control; assay type: functional; details: read-out: Activity
OVCAR-3 = experiment: Growth inhibition of human OVCAR3 cells assessed as cell growth at 0.01 uM incubated for 48 hrs by sulforhodamine B assay relative to control; assay type: functional; details: OVCAR-3, 48 h, read-out: Activity
NCI-H460 [3] = experiment: Growth inhibition of human NCI-H460 cells assessed as cell growth at 0.1 uM incubated for 48 hrs by sulforhodamine B assay relative to control; assay type: functional; details: NCI-H460, 48 h, read-out: Activity
HT-29 = experiment: Growth inhibition of human HT-29 cells assessed as cell growth at 0.1 uM incubated for 48 hrs by sulforhodamine B assay relative to control; assay type: functional; details: HT-29, 48 h, read-out: Activity
M14 = experiment: Growth inhibition of human M14 cells assessed as cell growth at 0.1 uM incubated for 48 hrs by sulforhodamine B assay relative to control; assay type: functional; details: M14, 48 h, read-out: Activity
SR = experiment: Growth inhibition of human SR cells assessed as cell growth at 1 uM incubated for 48 hrs by sulforhodamine B assay relative to control; assay type: functional; details: read-out: Activity
NCI-H322M = experiment: Growth inhibition of human NCI-H322M cells assessed as cell growth at 1 uM incubated for 48 hrs by sulforhodamine B assay relative to control; assay type: functional; details: read-out: Activity
COLO 205 = experiment: Growth inhibition of human COLO205 cells assessed as cell growth at 1 uM incubated for 48 hrs by sulforhodamine B assay relative to control; assay type: functional; details: COLO 205, 48 h, read-out: Activity
HCT-116 [4] = experiment: Growth inhibition of human HCT116 cells assessed as cell growth at 1 uM incubated for 48 hrs by sulforhodamine B assay relative to control; assay type: functional; details: HCT-116, 48 h, read-out: Activity
HCT-15 = experiment: Growth inhibition of human HCT15 cells assessed as cell growth at 1 uM incubated for 48 hrs by sulforhodamine B assay relative to control; assay type: functional; details: HCT-15, 48 h, read-out: Activity
MDA-MB-435 = experiment: Growth inhibition of human MDA-MB-435 cells assessed as cell growth at 1 uM incubated for 48 hrs by sulforhodamine B assay relative to control; assay type: functional; details: MDA-MB-435, 48 h, read-out: Activity
SK-MEL-2 = experiment: Growth inhibition of human SK-MEL-2 cells assessed as cell growth at 1 uM incubated for 48 hrs by sulforhodamine B assay relative to control; assay type: functional; details: SK-MEL-2, 48 h, read-out: Activity
SK-MEL-28 = experiment: Growth inhibition of human SK-MEL-28 cells assessed as cell growth at 1 uM incubated for 48 hrs by sulforhodamine B assay relative to control; assay type: functional; details: SK-MEL-28, 48 h, read-out: Activity
IGROV-1 = experiment: Growth inhibition of human IGROV1 cells assessed as cell growth at 1 uM incubated for 48 hrs by sulforhodamine B assay relative to control; assay type: functional; details: IGROV-1, 48 h, read-out: Activity
786-0 = experiment: Growth inhibition of human 786-0 cells assessed as cell growth at 1 uM incubated for 48 hrs by sulforhodamine B assay relative to control; assay type: functional; details: 786-0, 48 h, read-out: Activity
MDA-MB-231 = experiment: Growth inhibition of human MDA-MB-231 cells assessed as cell growth at 1 uM incubated for 48 hrs by sulforhodamine B assay relative to control; assay type: functional; details: MDA-MB-231, 48 h, read-out: Activity
MDA-MB-468 = experiment: Growth inhibition of human MDA-MB-468 cells assessed as cell growth at 1 uM incubated for 48 hrs by sulforhodamine B assay relative to control; assay type: functional; details: MDA-MB-468, 48 h, read-out: Activity
NCI-H460 [5] = experiment: Growth inhibition of human NCI-H460 cells assessed as cell growth at 100 uM incubated for 48 hrs by sulforhodamine B assay relative to control; assay type: functional; details: NCI-H460, 48 h, read-out: Activity
SNB-19 = experiment: Growth inhibition of human SNB19 cells assessed as cell growth at 100 uM incubated for 48 hrs by sulforhodamine B assay relative to control; assay type: functional; details: SNB-19, 48 h, read-out: Activity
SK-MEL-5 = experiment: Growth inhibition of human SK-MEL-5 cells assessed as cell growth at 100 uM incubated for 48 hrs by sulforhodamine B assay relative to control; assay type: functional; details: SK-MEL-5, 48 h, read-out: Activity
OVCAR-4 = experiment: Growth inhibition of human OVCAR4 cells assessed as cell growth at 100 uM incubated for 48 hrs by sulforhodamine B assay relative to control; assay type: functional; details: OVCAR-4, 48 h, read-out: Activity
SN12C = experiment: Growth inhibition of human SN12C cells assessed as cell growth at 100 uM incubated for 48 hrs by sulforhodamine B assay relative to control; assay type: functional; details: read-out: Activity
MCF7 = experiment: Growth inhibition of human MCF7 cells assessed as cell growth at 100 uM incubated for 48 hrs by sulforhodamine B assay relative to control; assay type: functional; details: MCF7, 48 h, read-out: Activity
[6] = read-out: LC50 (the source's name)
[7] = read-out: pLC50 (the source's name) (converted)

O=C(Nc1cccc(-n2cc(-c3ccncc3)c(-c3cc(O)cc(Cl)c3)n2)c1)c1ccc(N2CCOCC2)c(C(F)(F)F)c1 gave an IC50 (A549) of 1.64 µM, a GI50 (A549; read-out: GI50) of 1.54 µM and a CC50 (A549; [6]) of over 100 µM. For the same compound, the TGI (A549; read-out: TGI) was 18 µM, the GI50 (A549; read-out: pGI50 (converted)) was 1.66 µM and the CC50 (A549; [7]) was over 100 µM. It also gave a TGI (A549; read-out: pTGI (converted)) of 18.2 µM, a GI50 (NCI-H23; read-out: GI50) of 3.56 µM and an LC50 (NCI-H23; read-out: LC50) of over 100 µM. For the same compound, the TGI (NCI-H23; read-out: TGI) was 38.8 µM, the GI50 (NCI-H23; read-out: pGI50 (converted)) was 3.63 µM and the LC50 (NCI-H23; read-out: pLC50 (converted)) was over 100 µM. For the same compound, the TGI (NCI-H23; read-out: pTGI (converted)) was 38.9 µM, the GI50 (NCI/ADR-RES; read-out: GI50) was 45.9 µM and the CC50 (NCI/ADR-RES; [6]) was over 100 µM. It also gave a TGI (NCI/ADR-RES; read-out: TGI) of over 100 µM, a GI50 (NCI/ADR-RES; read-out: pGI50 (converted)) of 4.57 µM and a CC50 (NCI/ADR-RES; [7]) of over 100 µM. For the same compound, the TGI (NCI/ADR-RES; read-out: pTGI (converted)) was over 100 µM, the IC50 (PC-3) was 1.09 µM and the GI50 (PC-3; read-out: GI50) was 1.09 µM. The CC50 (PC-3; [6]) was over 100 µM, the TGI (PC-3; read-out: TGI) was 45.6 µM and the GI50 (PC-3; read-out: pGI50 (converted)) was 1.1 µM. The CC50 (PC-3; [7]) was over 100 µM, the TGI (PC-3; read-out: pTGI (converted)) was 45.7 µM and the growth at 0.01 µM (MOLT-4) was 93%. The growth at 0.01 µM (NCI-H460 [1]) was 104%, the growth at 0.01 µM (HCT-116 [2]) was 102% and the growth at 0.01 µM (Malme-3M) was 58%. The growth at 0.01 µM (OVCAR-3) was 111%, the growth at 0.1 µM (NCI-H460 [3]) was 104% and the growth at 0.1 µM (HT-29) was 95%. For the same compound, the growth at 0.1 µM (M14) was 91%, the growth at 1 µM (SR) was 9% and the growth at 1 µM (NCI-H322M) was 57%. It also gave a growth at 1 µM (COLO 205) of 100%, a growth at 1 µM (HCT-116 [4]) of 58% and a growth at 1 µM (HCT-15) of 35%. For the same compound, the growth at 1 µM (MDA-MB-435) was 54%, the growth at 1 µM (SK-MEL-2) was 77% and the growth at 1 µM (SK-MEL-28) was 44%. It also gave a growth at 1 µM (IGROV-1) of 91%, a growth at 1 µM (786-0) of 77% and a growth at 1 µM (MDA-MB-231) of 11%. It also gave a growth at 1 µM (MDA-MB-468) of 75%, a growth at 100 µM (NCI-H460 [5]) of -47% and a growth at 100 µM (SNB-19) of -12%. For the same compound, the growth at 100 µM (SK-MEL-5) was -72%, the growth at 100 µM (OVCAR-4) was 57% and the growth at 100 µM (SN12C) was 38%. It also gave a growth at 100 µM (MCF7) of 14%.
COc1cc(Cl)cc(-c2nn(-c3cccc(NC(=O)Nc4ccc(Cl)c(Cl)c4)c3)cc2-c2ccncc2)c1 gave an IC50 (A549) of 1.48 µM, a GI50 (A549; read-out: GI50) of 1.48 µM and a CC50 (A549; [6]) of over 100 µM. It also gave a TGI (A549; read-out: TGI) of 15.3 µM, a GI50 (A549; read-out: pGI50 (converted)) of 1.48 µM and a CC50 (A549; [7]) of over 100 µM. For the same compound, the TGI (A549; read-out: pTGI (converted)) was 15.5 µM, the LC50 (NCI-H23; read-out: LC50) was over 100 µM and the GI50 (NCI-H23; read-out: pGI50 (converted)) was 2.63 µM. For the same compound, the LC50 (NCI-H23; read-out: pLC50 (converted)) was over 100 µM, the TGI (NCI-H23; read-out: pTGI (converted)) was 9.12 µM and the GI50 (NCI/ADR-RES; read-out: GI50) was 2.34 µM. The CC50 (NCI/ADR-RES; [6]) was over 100 µM, the TGI (NCI/ADR-RES; read-out: TGI) was 24.9 µM and the GI50 (NCI/ADR-RES; read-out: pGI50 (converted)) was 2.34 µM. The CC50 (NCI/ADR-RES; [7]) was over 100 µM, the TGI (NCI/ADR-RES; read-out: pTGI (converted)) was 25.1 µM and the IC50 (PC-3) was 1.13 µM. The GI50 (PC-3; read-out: GI50) was 1.13 µM, the CC50 (PC-3; [6]) was over 100 µM and the TGI (PC-3; read-out: TGI) was 52.5 µM. It also gave a GI50 (PC-3; read-out: pGI50 (converted)) of 1.12 µM, a CC50 (PC-3; [7]) of over 100 µM and a TGI (PC-3; read-out: pTGI (converted)) of 5.25 µM. The growth at 0.01 µM (MOLT-4) was 99%, the growth at 0.01 µM (NCI-H460 [1]) was 100% and the growth at 0.01 µM (HCT-116 [2]) was 105%. For the same compound, the growth at 0.01 µM (Malme-3M) was 92%, the growth at 0.01 µM (OVCAR-3) was 100% and the growth at 0.1 µM (NCI-H460 [3]) was 100%. For the same compound, the growth at 0.1 µM (HT-29) was 91%, the growth at 0.1 µM (M14) was 100% and the growth at 1 µM (SR) was 68%. It also gave a growth at 1 µM (NCI-H322M) of 88%, a growth at 1 µM (COLO 205) of 91% and a growth at 1 µM (HCT-116 [4]) of 71%. It also gave a growth at 1 µM (HCT-15) of 77%, a growth at 1 µM (MDA-MB-435) of 85% and a growth at 1 µM (SK-MEL-2) of 80%. For the same compound, the growth at 1 µM (SK-MEL-28) was 87%, the growth at 1 µM (IGROV-1) was 102% and the growth at 1 µM (786-0) was 84%. The growth at 1 µM (MDA-MB-231) was 85%, the growth at 1 µM (MDA-MB-468) was 69% and the growth at 100 µM (NCI-H460 [5]) was -8%. It also gave a growth at 100 µM (SNB-19) of 10%, a growth at 100 µM (SK-MEL-5) of -68% and a growth at 100 µM (OVCAR-4) of -4%. It also gave a growth at 100 µM (SN12C) of 5% and a growth at 100 µM (MCF7) of -13%.
